From publication PMC11481179, “Development and Application of Reversible and Irreversible Covalent Probes for Human and Mouse Cathepsin‐K Activity Detection, Revealing Nuclear Activity” (Advanced Science, 2024)

How the values were obtained:
[1] = molecular target: CTSL (Homo sapiens, UniProt P07711); assay: Recombinant cathepsin inhibition, residual activity labeled by pan cathepsin probe GB123, in-gel fluorescence; format: biochemical; details: even at 10 µM
Procedure: Figure 1 In vitro evaluation of CTSK targeted compounds. a) Labeling of recombinant cathepsins by ABPs. Recombinant cathepsins were treated with increasing concentrations of ABPs for 1 h. Samples were separated by SDS‐PAGE and scanned for fluorescence by a Typhoon scanner at 635/670 nm. All probes show dose‐dependent binding to the CTSK, and have lower affinity to CTSS except GD36, b) CTSK [0.5–280 ng] was labeled with the indicated ABPs [5 µM]. Incubations were performed for 1 h at 37 °C, at pH 5.5. Samples were analyzed as described in (a). c) Recombinant cathepsins B, K, L, and S [0.5 µM] were first treated with the indicated concentrations of the inhibitor GD30 or vehicle for 1 h followed by incubation with a pan cathepsin probe GB123 [1 µM] for 1 h. Samples were analyzed as described in (a). d) Quantitative analysis of CTSK inhibition by GD30 presented in (d), data represent mean values ± standard error, n = 3. e) IC50 plot of GD30 inhibition of CTSK activity.
To further evaluate the probes for their selectivity, we applied a potent and selective covalent inhibitor, Compound 6 (GD30); the inhibitor was generated as a precursor of GD32 and GD36. GD30 was evaluated for its ability to block cathepsin activities by preincubating it with each recombinant enzyme before labeling it by a pan cathepsin ABP, GB123. […]
Recombinant cathepsin inhibition: Recombinant human CTSL, CTSB, CTSK, and CTSS (0.5 µM) were pretreated with different concentrations of inhibitors (GD30, ODN) for 1 h in reaction buffer (50 mM acetate, 4 mM DTT and 5 mM MgCl2, pH 5.5) at 37 °C. GB123, 1 µM, was added, and incubated with samples for 1 h at 37 °C. The reaction was stopped by the addition of sample buffer 4x (40% glycerol, 0.2 M Tris/HCl pH 6.8, 20% beta-mercaptoethanol, 12% SDS, and 0.4 mg/ml bromophenol blue). Samples were then boiled at 95 °C for 2 mins, separated on a 12.5% SDS gel, and scanned for fluorescence by a Typhoon scanner FLA 9500 at excitation/emission wavelengths of 635/670 nm.
Recombinant cathepsin labeling: Recombinant human CTSL, CTSB, CTSK, and CTSS (0.5 µM) were pretreated with different concentrations of probes (GD32, GD36, GD37, or GD42)

[2] = molecular target: T1, active CTSK in intact cells (MG-63, U-2 OS, U-87 MG) (Homo sapiens, UniProt P43235); assay: Labeling of endogenous CTSK in intact cells, fluorescent SDS-PAGE; format: cell-based; details: probe 5 µM, fluorescent SDS PAGE method
T1 construct: ability to label endogenous CTSK activity in intact cells; endogenous in cells; host or cells: MG-63, U-2 OS, U-87 MG
T1 sequence (P43235 115-329): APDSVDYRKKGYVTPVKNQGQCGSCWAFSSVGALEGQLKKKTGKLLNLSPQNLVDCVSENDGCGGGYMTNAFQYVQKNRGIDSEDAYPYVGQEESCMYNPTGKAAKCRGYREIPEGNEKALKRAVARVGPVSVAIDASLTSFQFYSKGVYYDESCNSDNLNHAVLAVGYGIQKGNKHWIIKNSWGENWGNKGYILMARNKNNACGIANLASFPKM
Procedure: Figure 2 Labeling of endogenous CTSK in intact cells. a) U2‐OS cells were treated with DMSO or 5 µM of the indicated inhibitors in culture medium, for 2 h, then with indicated ABPs [5 µM] in a culture medium for indicated times, followed by cell lysis, SDS‐PAGE separation, and fluorescent scanning of the gel at 635/670 nm. An immunoblot of CTSK of the same gel is presented below. b) Intact MG63 cells were treated with GD32 5 µM in the culture media for indicated times, cell lysates were analyzed as in a. CTSK immunoblot is presented, pro and mature CTSK are indicated by arrows. c) MG63 cells and d) U87MG cells were treated with DMSO, or 5 µM of indicated inhibitors in culture medium for 2 h, followed by incubation with 5 µM of indicated probes for 5 h (GD32 and GD42) and 2 h (GB123), cell lysates were analyzed by fluorescent SDS PAGE as in a. […] Cells were incubated with 5 µM GD32 for 24 h in growth media at indicated pHs, prior to the cell lysis, cell lysates were analysed as in a. […] Input (I), immunoprecipitation (IP), and output (O) were separated by a 14% SDS‐PAGE and scanned for fluorescence. […] We further corroborated the band identity by western blot with an anti‐CTSK antibody, where the mature active CTSK is detected at the same location on the gel (Figure 2). page 6: MG63 Ex/Em 635/670 nm b) Figure S5. […] Cell lysates were analyzed as described above. […]

Sequence of CTSL (P07711 114-333): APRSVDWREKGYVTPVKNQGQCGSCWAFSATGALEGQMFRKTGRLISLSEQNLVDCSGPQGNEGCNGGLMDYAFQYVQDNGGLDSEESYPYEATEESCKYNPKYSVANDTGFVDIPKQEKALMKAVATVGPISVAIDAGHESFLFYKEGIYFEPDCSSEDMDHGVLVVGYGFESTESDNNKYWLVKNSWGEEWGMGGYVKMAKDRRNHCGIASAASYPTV

Row | inhibition of recombinant cathepsin [1] | detection of binding to active CTSK [2] | SMILES
1 | not inhibiting |  | C#CCNC(=O)[C@H](CC(C)C)N[C@@H](c1ccc(-c2ccc(S(=O)(=O)CCNC(=O)OC(C)(C)C)cc2)cc1)C(F)(F)F [GD30]
2 |  | could not be detected | CC(C)C[C@H](N[C@@H](c1ccc(-c2ccc(S(=O)(=O)CCNC(=O)CCCCC[N+]3=C(/C=C/C=C/C=C4/N(C)c5ccc(S(=O)(=O)O)cc5C4(C)C)C(C)(C)c4cc(S(=O)(=O)O)ccc43)cc2)cc1)C(F)(F)F)C(=O)NC1(C#N)CC1 [GD37]
